Measurements as given in US4895931A, “Phospholipase A2 -inhibiting peptides” (Kyowa Hakko Kogyo Co., Ltd., priority 1988, dated 1990).
Where a SMILES comes first, the peptide text is derived from it.

Target: T1, porcine pancreas PLA2 (Sus scrofa, UniProt P00592)
T1 construct: purchased Sigma Chemical Co. P6534; host or cells: porcine pancreas
Test: PLA2-inhibiting activity (release of [1-14C] arachidonic acid from labelled phosphatidylcholine)
Format: biochemical
Conditions: for Inhibition ratio (Inhibition rate of test compound/Inhibition rate of Compound (IV)): Amount of sample: 100 mg, relative to Compound (IV) = 1.00
Description: A test compound was dissolved in 280 μl of 0.1M Tris-hydrochloride buffer (pH 8.8) containing 10 mM calcium chloride. To the solution was added a solution of 20 ng of porcine pancreas PLA2 (Sigma Chemical Co., catalog No. P6534) in 10 μl of the buffer having the same composition as above, followed by incubation at 37° C. for 10 minutes. To the resulting mixture was added a solution of 0.1 μCi of α-palmitoyl-β[1-^14 C] arachidonylphosphatidylcholine (54 μCi/μmol, NEN Research Products Co.) in 10 μl of the same buffer as above wherein micelles were formed, followed by incubation at 37° C. for 10 minutes. Then, 3 ml of a Dale reagent solution [2-propanol :n-heptane :1M sulfuric acid=40:10:1 v/v mixture; Methods in Enzymology 14, 167 (1969)] was added to stop the reaction, and 1.5 ml of n-heptane and 1 ml of water were added, followed by shaking. Radioactivity of the free [1-^14 C] arachidonic acid extracted to the heptane layer was measured. The value of this specific radioactivity is referred to as "a". Further, "b" and "c" refer to the specific radioactivity of the heptane layer obtained by adding the same amount of the buffer in place of the test compound solution and that of the heptane layer obtained by adding the same amount of the buffer in place of the test compound and PLA2, respectively. The inhibition rate (x) was calculated by the following equation: [formula]

T1 sequence (P00592 23-146): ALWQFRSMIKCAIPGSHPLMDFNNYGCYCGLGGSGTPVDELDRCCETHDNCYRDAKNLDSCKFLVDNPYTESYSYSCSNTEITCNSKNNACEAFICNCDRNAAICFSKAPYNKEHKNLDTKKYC

| Inhibition ratio (Inhibition rate of test compound/Inhibition rate of Compound (IV)) | Molecule | also measured |
| --- | --- | --- |
| 1.19 | CC[C@H](C)[C@H](NC(=O)[C@H](CCCNC(=N)N)NC(=O)[C@@H](NC(=O)[C@H](CC(C)C)NC(=O)[C@H](C)NC(=O)[C@H](CCCCN)NC(=O)[C@H](Cc1c[nH]cn1)NC(=O)[C@H](CCCNC(=N)N)NC(=O)[C@@H](NC(=O)CNC(=O)[C@@H](NC(=O)CN)C(C)C)[C@@H](C)O)[C@@H](C)CC)C(=O)N[C@@H](CCSC)C(=O)N[C@H](C(=O)N[C@@H](CO)C(=O)N[C@@H](CCCNC(=N)N)C(=O)O)C(C)C [X] (H-GVGTRHKALIRIMVSR-OH; N-terminus and C-terminus assumed) |  |
| 1.00 | CC(C)C[C@H](NC(=O)[C@H](C)NC(=O)[C@H](CCCCN)NC(=O)[C@H](CCCCN)NC(=O)[C@H](CC(C)C)NC(=O)[C@@H](NC(=O)[C@H](CCC(=O)O)NC(=O)[C@H](CC(=O)O)NC(=O)[C@H](CC(C)C)NC(=O)[C@@H]1CCCN1C(=O)[C@@H](N)CCCCN)[C@@H](C)O)C(=O)N[C@H](C(=O)NCC(=O)N[C@@H](Cc1c[nH]cn1)C(=O)N[C@@H](CC(C)C)C(=O)N[C@@H](CCC(=O)O)C(=O)O)[C@@H](C)O [IV] (H-KPLDETLKKALTGHLE-OH) | PLA2-inhibiting activity (in words): medium |
| 0.56 | CC[C@H](C)[C@H](N)C(=O)N[C@@H](CCC(=O)O)C(=O)N[C@H](C(=O)N[C@@H](CC(C)C)C(=O)N[C@@H](C)C(=O)N[C@@H](CO)C(=O)N[C@@H](CCCNC(=N)N)C(=O)N[C@H](C(=O)N[C@@H](CC(N)=O)C(=O)N[C@@H](CCCCN)C(=O)N[C@@H](CCC(=O)O)C(=O)N[C@H](C(=O)N[C@@H](CCCNC(=N)N)C(=O)N[C@@H](CC(=O)O)C(=O)N[C@H](C(=O)O)[C@@H](C)CC)[C@@H](C)CC)[C@@H](C)O)[C@@H](C)CC [V] (H-IEILASRTNKEIRDI-OH) |  |
| 0.20 | CC[C@H](C)[C@H](N)C(=O)N[C@@H](CCCCN)C(=O)N[C@@H](C)C(=O)N[C@@H](C)C(=O)N[C@@H](Cc1ccc(O)cc1)C(=O)N[C@@H](CC(C)C)C(=O)N[C@@H](CCC(N)=O)C(=O)N[C@@H](CCC(=O)O)C(=O)N[C@H](C(=O)NCC(=O)N[C@@H](CCCCN)C(=O)N1CCC[C@H]1C(=O)N[C@@H](CC(C)C)C(=O)N[C@@H](CC(=O)O)C(=O)N[C@@H](CCC(=O)O)C(=O)N[C@H](C(=O)N[C@@H](CC(C)C)C(=O)N[C@@H](CCCCN)C(=O)N[C@@H](CCCCN)C(=O)N[C@@H](C)C(=O)N[C@@H](CC(C)C)C(=O)N[C@H](C(=O)NCC(=O)N[C@@H](Cc1c[nH]cn1)C(=O)N[C@@H](CC(C)C)C(=O)N[C@@H](CCC(=O)O)C(=O)O)[C@@H](C)O)[C@@H](C)O)[C@@H](C)O [III] (H-IKAAYLQETGKPLDETLKKALTGHLE-OH) |  |
|  | CC[C@H](C)[C@H](N)C(=O)N[C@@H](CCCCN)C(=O)N[C@@H](C)C(=O)N[C@@H](Cc1ccccc1)C(=O)N[C@@H](Cc1ccc(O)cc1)C(=O)N[C@@H](CCC(N)=O)C(=O)N[C@@H](CCCCN)C(=O)N[C@@H](CCSC)C(=O)N[C@@H](Cc1ccc(O)cc1)C(=O)NCC(=O)N[C@H](C(=O)N[C@@H](CO)C(=O)N[C@@H](CC(C)C)C(=O)N[C@@H](CS)C(=O)N[C@@H](CCC(N)=O)C(=O)N[C@@H](C)C(=O)O)[C@@H](C)CC [XII] (H-IKAFYQKMYGISLCQA-OH) | IC50 compared with that of lipocortin (in words): almost equal to that of lipocortin; IC50 (read-out: IC50 (concentration required for inhibiting the PLA2 activity by 50%) (converted)): 1070 nM |
| 1.06 | CC[C@H](C)[C@H](NC(=O)[C@H](C)NC(=O)[C@@H](NC(=O)[C@H](CC(C)C)NC(=O)[C@H](CS)NC(=O)[C@@H](N)CCCCN)[C@@H](C)O)C(=O)N[C@H](C(=O)N[C@@H](CCCCN)C(=O)N[C@@H](CS)C(=O)N[C@@H](C)C(=O)N[C@H](C(=O)N[C@@H](CO)C(=O)N[C@@H](CCCCN)C(=O)N1CCC[C@H]1C(=O)N[C@@H](C)C(=O)O)[C@@H](C)O)C(C)C [VIII] (H-KCLTAIVKCATSKPA-OH; N-terminus and C-terminus assumed) |  |
|  | rLC: lipocortin prepared using Escherichia coli according to the method of Wallner, et al. (protein, UniProt P04083 2-346, looked up, recombinant, E. coli) Annexin A1: AMVSEFLKQAWFIENEEQEYVQTVKSSKGGPGSAVSPYPTFNPSSDVAALHKAIMVKGVDEATIIDILTKRNNAQRQQIKAAYLQETGKPLDETLKKALTGHLEEVVLALLKTPAQFDADELRAAMKGLGTDEDTLIEILASRTNKEIRDINRVYREELKRDLAKDITSDTSGDFRNALLSLAKGDRSEDFGVNEDLADSDARALYEAGERRKGTDVNVFNTILTTRSYPQLRRVFQKYTKYSKHDMNKVLDLELKGDIEKCLTAIVKCATSKPAFFAEKLHQAMKGVGTRHKALIRIMVSRSEIDMNDIKAFYQKMYGISLCQAILDETKGDYEKILVALCGGN | IC50 (concentration required for inhibiting the PLA2 activity by 50%): 1.5 µg/mL |
